{"source": "paper PMC5131319", "about": "“Occurrence, temporal trends, and half-lives of perfluoroalkyl acids (PFAAs) in occupational workers in China” (Scientific Reports, 2016)", "key": {"[1]": {"test": "PFAA concentration in serum of occupational workers (HPLC-ESI/MS/MS)", "type": "in vivo, human", "set-up": "Serum PFAA level: unit: ng/mL", "experimental": "(§1) The selected fluorochemical plant (Henxin Chemical Plant) in this study is one of the largest producers of PFOS-related chemicals in China and is located in Yingcheng, Hubei province. Perfluoroalkyl sulfonic acids (PFSAs) and perfluorotertiary amines are synthesized through an electro-chemical fluorination (ECF) process. We collected paired serum and urine samples from the occupational workers in the plant for five consecutive years, and the sampling activities were carried out in Nov. 2008, Nov. 2009, Nov. 2010, Dec. 2011, and Dec 2012, respectively. The Medical Research Ethics Committee, School of Medicine, Jianghan University, approved the ethics of this study, and all methods were performed in accordance with the relevant guidelines and regulations, moreover, all volunteers gave written informed consent. Demographic information of the donors, including gender, age, length of service, and work assignment, was collected with a questionnaire (Table S1). The sampled population included a total of 302 occupational workers, of which there were 89 female and 213 male participants. In total, 302 serum and 274 urine samples were collected.\n(§2) The participants were told not to eat breakfast before the sampling, and morning urine samples and blood samples were collected. Serum was separated from the blood by centrifugation at 1100 × g at 4 °C for 10 min and then placed on ice. Serum samples were then transferred to our laboratory on the same day and stored in polypropylene containers at −20 °C until analysis.\n(§3) All pre-treatment methods and instrument analysis of PFAAs in serum and urine samples are based on previous studies with minor modifications (see Supplementary Information)[3][31]. Based on the PFAA profiles in environmental matrices around the same plant in our previous study, only 3 main PFAAs, PFHxS, PFOA, and PFOS, were analyzed in the obtained serum and urine samples. Instrumental analysis of the PFAAs was performed by a HPLC-ESI/MS/MS system (HPLC: Waters 2695, MS: Waters Quattro Premier XE). The limits of detection (LODs) of PFHxS, PFOA, and PFOS were 0.020, 0.063, and 0.018 ng mL^−1 for serum samples and 0.008, 0.025, and 0.007 ng mL^−1 for urine samples, respectively. A procedural blank was performed for every batch of seven samples, and all of the blank levels were below the LODs. […] Details of quality assurance and quality control of the chemical analysis can be found in the Supplementary Information."}, "[2]": {"test": "PFAA concentration in morning urine of occupational workers (HPLC-ESI/MS/MS)", "type": "in vivo, human", "conditions": "for Urine PFOA concentration: individual workers", "experimental": "as §1, §2, §3\nUrine samples were pretreated by solid phase extraction. Briefly, 1 mL of urine spiked with 5 ng of internal standard was added to a 15 - mL PP tube and diluted with 13 mL water. The solid phase extraction procedure was then performed following the previously described serum extraction procedure."}, "[3]": {"test": "Half-life estimated by annual decline rates of serum PFAAs (first-order model)", "type": "in vivo, human", "source_text": "Olsen et al.[21] found linear relationship between the logarithm of serum PFAAs concentration and time, and a first order model was adopted to estimate the half-lives of PFAAs. The elimination of PFAAs in humans was also described with the following equation: […]\nIf we set C(t) as 1/2C0, then the half-life\nwhere k is the elimination rate constant. We calculated k using two approaches in the present study. In the first approach, k is defined as Cltotal/Vd, where Vd stands for the volume of distribution of PFAAs in the human body. Cltotal represents the total daily PFAAs clearance in the human body; for men and women older than 50, it refers to renal clearance, while for young women, it is defined as the sum of menstrual clearance and renal clearance. To keep consistency with other studies, Vd of PFOS and PFHxS were set at 230 mL kg^−1, and Vd of PFOA was set at 170 mL kg^−1 in this study. In the second approach, k is defined as the average annual decline rates of PFAAs in workers who participated in this study.\nSerum PFAAs of workers were sequentially measured for 5 years, and they fluctuated during our sampling period, although different serum PFAAs decreased in certain years. […] For PFOA, 31 out of 42 workers decreased in the period of 2011–2012, and the serum PFOA concentration dropped by 41%. […] We assumed that there were no new inputs of PFAAs in these workers, and thus k in Eq (2) was set as the average annual serum PFAA decline rate. The half-lives of PFHxS, PFOA, and PFOS estimated by Eq (2) were 3.6, 1.7, and 1.9 years."}, "[4]": {"conditions": "cited from earlier work"}, "[5]": {"conditions": "Fabric finishing agent department, N 8"}}, "note": "Values joined by “and” are separate entries in the source; they are usually repeats but may differ in a detail not shown here. Equal entries are not always repeated.", "data": [{"compound": "O=C(O)C(F)(F)C(F)(F)C(F)(F)C(F)(F)C(F)(F)C(F)(F)C(F)(F)F", "note": "[PFOA, perfluorooctanoic acid]", "values": [{"measurement": "Serum concentration, mean", "setting": "[1]; All workers, N 302", "result": 1.052, "unit": "µg/mL"}, {"measurement": "Serum concentration, median", "setting": "[1]; All workers, N 302", "result": 0.427, "unit": "µg/mL"}, {"measurement": "Serum concentration, range", "setting": "[1]; All workers, N 302", "result": "0.0025 to 32", "unit": "µg/mL"}, {"measurement": "Serum PFAA level", "setting": "[1]; Electrolytic Department, length of service < 1 year", "result": 118}, {"measurement": "Serum concentration, mean", "setting": "[1]; Electrolytic department, N 74", "result": 2.337, "unit": "µg/mL"}, {"measurement": "Serum concentration, median", "setting": "[1]; Electrolytic department, N 74", "result": 1.126, "unit": "µg/mL"}, {"measurement": "Serum concentration, range", "setting": "[1]; Electrolytic department, N 74", "result": "0.0559 to 32", "unit": "µg/mL"}, {"measurement": "Serum concentration, mean", "setting": "[1]; [5]", "result": 0.606, "unit": "µg/mL"}, {"measurement": "Serum concentration, median", "setting": "[1]; [5]", "result": 0.114, "unit": "µg/mL"}, {"measurement": "Serum concentration, range", "setting": "[1]; [5]", "result": "0.051 to 2.6", "unit": "µg/mL"}, {"measurement": "Serum PFAA level", "setting": "[1]; Management Office, length of service 1-3 years", "result": 48.3}, {"measurement": "Serum PFAA level", "setting": "[1]; Management Office, length of service < 1 year", "result": 9.9}, {"measurement": "Serum PFAA level", "setting": "[1]; Management Office, length of service >3 years", "result": 167}, {"measurement": "Serum concentration, mean", "setting": "[1]; Management office, N 92", "result": 0.362, "unit": "µg/mL"}, {"measurement": "Serum concentration, median", "setting": "[1]; Management office, N 92", "result": 0.101, "unit": "µg/mL"}, {"measurement": "Serum concentration, range", "setting": "[1]; Management office, N 92", "result": "0.0025 to 4.38", "unit": "µg/mL"}, {"measurement": "Serum PFAA level", "setting": "[1]; Research Building, length of service 1-3 years", "result": 124}, {"measurement": "Serum PFAA level", "setting": "[1]; Research Building, length of service >3 years", "result": 276}, {"measurement": "Serum concentration, mean", "setting": "[1]; Research building, N 27", "result": 0.404, "unit": "µg/mL"}, {"measurement": "Serum concentration, median", "setting": "[1]; Research building, N 27", "result": 0.142, "unit": "µg/mL"}, {"measurement": "Serum concentration, range", "setting": "[1]; Research building, N 27", "result": "0.0047 to 2.92", "unit": "µg/mL"}, {"measurement": "Serum PFAA level", "setting": "[1]; Sulfonation Department, length of service 1-3 years", "result": 371}, {"measurement": "Serum PFAA level", "setting": "[1]; Sulfonation Department, length of service < 1 year", "result": 185}, {"measurement": "Serum PFAA level", "setting": "[1]; Sulfonation Department, length of service >3 years", "result": 896}, {"measurement": "Serum concentration, mean", "setting": "[1]; Sulfonation department, N 101", "result": 0.929, "unit": "µg/mL"}, {"measurement": "Serum concentration, median", "setting": "[1]; Sulfonation department, N 101", "result": 0.603, "unit": "µg/mL"}, {"measurement": "Serum concentration, range", "setting": "[1]; Sulfonation department, N 101", "result": "0.0049 to 4.63", "unit": "µg/mL"}, {"measurement": "Serum concentration, geometric mean", "setting": "[1]; all occupational workers", "result": 0.334, "unit": "µg/mL"}, {"measurement": "Average serum concentration (Average ± SD)", "setting": "[1]; female workers, n 89", "result": "659 ± 743", "unit": "ng/mL"}, {"measurement": "concentration at 2008 calendar year", "setting": "[1]; human, serum, other: occupational exposure, 46 workers sampled at least three times, 2008, read-out: Serum concentration, GM", "result": 0.368, "unit": "µg/mL"}, {"measurement": "concentration at 2009 calendar year", "setting": "[1]; human, serum, other: occupational exposure, 46 workers sampled at least three times, 2009, read-out: Serum concentration, GM", "result": 0.252, "unit": "µg/mL"}, {"measurement": "concentration at 2010 calendar year", "setting": "[1]; human, serum, other: occupational exposure, 46 workers sampled at least three times, 2010, read-out: Serum concentration, GM", "result": 0.622, "unit": "µg/mL"}, {"measurement": "concentration at 2011 calendar year", "setting": "[1]; human, serum, other: occupational exposure, 46 workers sampled at least three times, 2011, read-out: Serum concentration, GM", "result": 0.692, "unit": "µg/mL"}, {"measurement": "concentration at 2012 calendar year", "setting": "[1]; human, serum, other: occupational exposure, 46 workers sampled at least three times, 2012, read-out: Serum concentration, GM", "result": 0.416, "unit": "µg/mL"}, {"measurement": "Average serum concentration (Average ± SD)", "setting": "[1]; male workers, n 213", "result": "1,215 ± 2,936 ng mL^−1"}, {"measurement": "Serum concentration, GM", "setting": "[1]; workers with service length 1–3 years", "result": 0.222, "unit": "µg/mL"}, {"measurement": "Serum concentration, GM", "setting": "[1]; workers with service length less than 1 year", "result": 0.068, "unit": "µg/mL"}, {"measurement": "Serum concentration, GM", "setting": "[1]; workers with service length more than 3 years", "result": 0.527, "unit": "µg/mL"}, {"measurement": "Urine concentration, mean", "setting": "[2]; All workers, N 274", "result": 4.3, "unit": "ng/mL"}, {"measurement": "Urine concentration, median", "setting": "[2]; All workers, N 274", "result": 1.9, "unit": "ng/mL"}, {"measurement": "Urine concentration, mean", "setting": "[2]; Electrolytic department, N 67", "result": 6.7, "unit": "ng/mL"}, {"measurement": "Urine concentration, median", "setting": "[2]; Electrolytic department, N 67", "result": 3.5, "unit": "ng/mL"}, {"measurement": "Urine concentration, mean", "setting": "[2]; [5]", "result": 5.1, "unit": "ng/mL"}, {"measurement": "Urine concentration, median", "setting": "[2]; [5]", "result": 1.5, "unit": "ng/mL"}, {"measurement": "Urine concentration, range", "setting": "[2]; [5]", "result": "1.2 to 22.2", "unit": "ng/mL"}, {"measurement": "Urine concentration, mean", "setting": "[2]; Management office, N 76", "result": 1.5, "unit": "ng/mL"}, {"measurement": "Urine concentration, median", "setting": "[2]; Management office, N 76", "result": 0.86, "unit": "ng/mL"}, {"measurement": "Urine concentration, mean", "setting": "[2]; Research building, N 25", "result": 1.8, "unit": "ng/mL"}, {"measurement": "Urine concentration, median", "setting": "[2]; Research building, N 25", "result": 0.92, "unit": "ng/mL"}, {"measurement": "Urine concentration, mean", "setting": "[2]; Sulfonation department, N 98", "result": 4.8, "unit": "ng/mL"}, {"measurement": "Urine concentration, median", "setting": "[2]; Sulfonation department, N 98", "result": 2.7, "unit": "ng/mL"}, {"measurement": "Urine PFOA concentration", "setting": "[2]; sampling year 2008", "result": "5.18 ng/mL and 0.0901 ng/mL and 0.0937 ng/mL and 0.178 ng/mL and 2.21 ng/mL and 7.6 ng/mL and 0.0489 ng/mL and 3.75 ng/mL and 2.54 ng/mL and 2.88 ng/mL and 0.67 ng/mL and 2.31 ng/mL and 1.03 ng/mL and 1.26 ng/mL and 0.0447 ng/mL and 0.688 ng/mL and 2.24 ng/mL and 2 ng/mL and 1.47 ng/mL and 0.668 ng/mL and 0.709 ng/mL and 0.448 ng/mL and 4.18 ng/mL and 5 ng/mL and 8.09 ng/mL and 7.15 ng/mL and 6.68 ng/mL"}, {"measurement": "Urine PFOA concentration", "setting": "[2]; sampling year 2009", "result": "3.45 ng/mL and 8.82 ng/mL and 14.8 ng/mL and 1.48 ng/mL and 15.8 ng/mL and 19.6 ng/mL and 6.9 ng/mL and 5.24 ng/mL and 1.14 ng/mL and 1.2 ng/mL and 1.69 ng/mL and 0.889 ng/mL and 4 ng/mL and 0.515 ng/mL and 2.24 ng/mL and 5.25 ng/mL and 1.05 ng/mL and 0.776 ng/mL and 0.537 ng/mL and 12.4 ng/mL and 4.34 ng/mL and 1.12 ng/mL and 15.3 ng/mL and 19.1 ng/mL and 10 ng/mL and 4.81 ng/mL"}, {"measurement": "Drop of serum concentration", "setting": "[3]; 2011–2012, 42 workers", "result": 41, "unit": "%"}, {"measurement": "half-life", "setting": "[3]; human, k = average annual serum decline rate, no new inputs assumed, two time points", "result": 621, "unit": "days"}, {"measurement": "Shortest half-life in humans reported in previous studies", "setting": "[4]", "result": 1.2, "unit": "years"}, {"measurement": "Half-life (GM)", "setting": "[4]; retired fluorochemical production workers", "result": 3.5, "unit": "years"}]}]}
